Key:
[1] = Accelerated stability of Cmpd. A in solvents at 50° C.; format: physicochemical
Excerpt: An important aspect of the invention is to provide a multiple-use container comprising a topical composition of the invention, from which accurate single dose aliquots of the long lasting topical formulations may be administered. The formulation must remain stable with repetitive exposure to the outside environment, particularly oxygen and water. This embodiment may be particularly useful with the very long lasting formulations of the invention that require administration to an animal infrequently, such as once every 3-6 months, or similar. Some solvents such as ethers (including DMI, Transcutol® and the like) give rise to peroxides, which then yield ketones and aldehydes that may be further degraded to acids. The presence of acids may contribute to the degradation of acid hydrolysis-susceptible molecules, including isoxazoline active agents. Thus, formulation stability is particularly important for the multi-dose container application, where the formulations can be exposed to oxygen and water during multiple rounds of opening and closing. […]

Rhipicephalus sanguineus = assay: Spot-on efficacy against Rhipicephalus sanguineus ticks in dogs, three DES formulations (Example 6); format: in vivo; conditions: for % Reduction: 48 h count
Procedure: A further study was conducted to examine the efficacy of a topical formulations comprising Compound A in three different formulations containing DES against ticks in dogs. Twenty-four beagles were studied to determine the effectiveness against induced infestations of Rhipicephalus sanguineus of spot-on formulations comprising Cmpd. A in different carriers administered at 4.0 mg/kg to dogs.
Treatment Group 1 dogs were treated with a placebo solution. Treatment Group 2 was treated with a formulation comprising 6% (w/v) Cmpd. A in DES; Treatment Group 3 were treated with a composition comprising 6% (w/v) Cmpd. A in 40% DES/DMI; and Treatment Group 4 were treated with a formulation comprising 6% (w/v) Cmpd. A in DES with 30% Capryol 90. All dogs were treated once topically on Day 0. Topical solutions were applied by parting the hair and applying the solution from a syringe directly onto the skin in a single spot on the midline of the neck between the base of the skull and the shoulder blades.
All dogs were infested with approximately 50 R. sanguineus on Days −1, 7, 14, 21, 28, 35 and 42. Ticks were counted upon removal from dogs on Days 2, 9, 16, 23, 30, 37, and 44. All ticks were counted upon removal at 48 (±3) hours post treatment or infestation.
The percent efficacies of the treated groups compared to the untreated control group were determined for the 48 hour post-treatment/infestation counts. Treatment Group 3 maintained ≥90% efficacy 48 hours after infestation at every sampling time from Day 9 through Day 44. Treatment Group 2 was able to maintain at least 90% efficacy 48 hours after infestation throughout the six weeks of the study.

With `O=C(CNC(=O)c1ccc(C2=NOC(c3cc(Cl)cc(C(F)(F)F)c3)(C(F)(F)F)C2)c2ccccc12)NCC(F)(F)F` (stereo not shown) [Compound A, 4-[5-[3-chloro-5-(trifluoromethyl)phenyl]-4,5-dihydro-5-(trifluoromethyl)-3-isoxazolyl]-N-[2-oxo-2-[(2,2,2-trifluoroethyl)amino]ethyl]-1-naphthalanecarboxamide] the “change in assay, accelerated stability study” value ([1]; 12% (w/v) solution in DMI, eleven week, 50° C., clear glass containers) was “no significant change in assay”, the stability in solvents ([1]; DES, DIPA, DMI, triacetin, GF and propylene carbonate, 50° C. in glass bottles) was “stable” and the “% Reduction” value (Rhipicephalus sanguineus; Group 2: 6% in DES, 4.0 mg/kg, Day 2) was 93.2%. For the same compound, the “% Reduction” value (Rhipicephalus sanguineus; Group 2: 6% in DES, 4.0 mg/kg, Day 9) was 100.0%, the “% Reduction” value (Rhipicephalus sanguineus; Group 2: 6% in DES, 4.0 mg/kg, Day 16) was 100.0% and the “% Reduction” value (Rhipicephalus sanguineus; Group 2: 6% in DES, 4.0 mg/kg, Day 23) was 100.0%. For the same compound, the “% Reduction” value (Rhipicephalus sanguineus; Group 2: 6% in DES, 4.0 mg/kg, Day 30) was 97.8%, the “% Reduction” value (Rhipicephalus sanguineus; Group 2: 6% in DES, 4.0 mg/kg, Day 37) was 95.3% and the “% Reduction” value (Rhipicephalus sanguineus; Group 2: 6% in DES, 4.0 mg/kg, Day 44) was 97.5%. The “% Reduction” value (Rhipicephalus sanguineus; Group 3: 6% in 40% DES/DMI, 4.0 mg/kg, Day 2) was 72.8%, the “% Reduction” value (Rhipicephalus sanguineus; Group 3: 6% in 40% DES/DMI, 4.0 mg/kg, Day 9) was 100.0% and the “% Reduction” value (Rhipicephalus sanguineus; Group 3: 6% in 40% DES/DMI, 4.0 mg/kg, Day 16) was 100.0%. For the same compound, the “% Reduction” value (Rhipicephalus sanguineus; Group 3: 6% in 40% DES/DMI, 4.0 mg/kg, Day 23) was 100.0%, the “% Reduction” value (Rhipicephalus sanguineus; Group 3: 6% in 40% DES/DMI, 4.0 mg/kg, Day 30) was 100.0% and the “% Reduction” value (Rhipicephalus sanguineus; Group 3: 6% in 40% DES/DMI, 4.0 mg/kg, Day 37) was 93.5%. For the same compound, the “% Reduction” value (Rhipicephalus sanguineus; Group 3: 6% in 40% DES/DMI, 4.0 mg/kg, Day 44) was 82.9%, the “% Reduction” value (Rhipicephalus sanguineus; Group 4: 6% in DES with 30% Capryol 90, 4.0 mg/kg, Day 2) was 97.2% and the “% Reduction” value (Rhipicephalus sanguineus; Group 4: 6% in DES with 30% Capryol 90, 4.0 mg/kg, Day 9) was 100.0%. For the same compound, the “% Reduction” value (Rhipicephalus sanguineus; Group 4: 6% in DES with 30% Capryol 90, 4.0 mg/kg, Day 16) was 100.0%, the “% Reduction” value (Rhipicephalus sanguineus; Group 4: 6% in DES with 30% Capryol 90, 4.0 mg/kg, Day 23) was 100.0% and the “% Reduction” value (Rhipicephalus sanguineus; Group 4: 6% in DES with 30% Capryol 90, 4.0 mg/kg, Day 30) was 98.4%. The “% Reduction” value (Rhipicephalus sanguineus; Group 4: 6% in DES with 30% Capryol 90, 4.0 mg/kg, Day 37) was 96.1%, the “% Reduction” value (Rhipicephalus sanguineus; Group 4: 6% in DES with 30% Capryol 90, 4.0 mg/kg, Day 44) was 78.1% and the “efficacy 48 hours after infestation” value (Rhipicephalus sanguineus; Treatment Group 2, throughout the six weeks of the study) was no less than 90%. For the same compound, the “efficacy 48 hours after infestation” value (Rhipicephalus sanguineus; Treatment Group 3, Day 9 through Day 44) was no less than 90%.

From US11464763B2, “Parasiticidal compositions comprising an isoxazoline active agent, methods and uses thereof” (BOEHRINGER INGELHEIM ANIMAL HEALTH USA INC., priority 2011, dated 2022)
